Where two headings read alike, the source gives them in different places.
How the values were obtained:
[1] = system: 60 cancer cell lines (NCI 60 cancer cell line series); assay: NCI-DTP in vitro cancer screen, sulforhodamine B (SRB) growth inhibition, 48 hour exposure; type: cell-based, human; design: key to sensitivity class Ovarian OVCAR-8 CL6005 / sensitivity class Ovarian SK-OV-3 CL6011 / sensitivity class Prostate DU-145 CL11003 / sensitivity class NSCLC NCI-H522 CL1003 / sensitivity class Ovarian IGROV1 CL6010 / sensitivity class Ovarian OVCAR-4 CL6002 / sensitivity class Prostate PC-3(I) CL11001 / sensitivity class Renal A498 CL9013 / sensitivity class Renal SN12C CL9008: sensitivity class: 1 = Low, 2 = Medium, 3 = High
Summary of the method: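 Values come from the NCI-DTP screen database: -log GI50, the concentration giving 50% growth inhibition, derived from SRB cell-mass dose-response curves. Each line seeded at its own density, treated day 1 at five ten-fold-spaced doses in duplicate wells, stained after 48 h.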

[2] = system: 60 cancer cell lines (NCI 60 cancer cell line series); conditions: cited from earlier work

COc1cc([C@@H]2c3cc4c(cc3[C@@H](O[C@@H]3O[C@@H]5CO[C@@H](C)O[C@H]5[C@H](O)[C@H]3O)[C@H]3COC(=O)[C@H]23)OCO4)cc(OC)c1O [Etoposide]
classification of cell line as Low(1), Medium(2) or High(3) sensitivity to compound ([1]; Breast BT-549 (CL5013)): 2 | classification of cell line as Low(1), Medium(2) or High(3) sensitivity to compound ([1]; Breast HS-578T CL5006): 3 | classification of cell line as Low(1), Medium(2) or High(3) sensitivity to compound ([1]; Breast MCF7(I) (CL5001)): 2 | classification of cell line as Low(1), Medium(2) or High(3) sensitivity to compound ([1]; Breast MCF7/ADRr (CL5002)): 1 | classification of cell line as Low(1), Medium(2) or High(3) sensitivity to compound ([1]; Breast MDA-MB-231 CL5005): 2 | classification of cell line as Low(1), Medium(2) or High(3) sensitivity to compound ([1]; Breast MDA-MB-435 (CL5011)): 2 | classification of cell line as Low(1), Medium(2) or High(3) sensitivity to compound ([1]; Breast MDA-N CL5012): 3 | classification of cell line as Low(1), Medium(2) or High(3) sensitivity to compound ([1]; Breast T-47D (CL5014)): 3 | classification of cell line as Low(1), Medium(2) or High(3) sensitivity to compound ([1]; CNS SF-268 CL12014): 2 | classification of cell line as Low(1), Medium(2) or High(3) sensitivity to compound ([1]; CNS SF-295 CL12015): 2 | classification of cell line as Low(1), Medium(2) or High(3) sensitivity to compound ([1]; CNS SF-539 CL12016): 2 | classification of cell line as Low(1), Medium(2) or High(3) sensitivity to compound ([1]; CNS SNB-19 (CL12002)): 2 | classification of cell line as Low(1), Medium(2) or High(3) sensitivity to compound ([1]; CNS SNB-75(I) CL12005): 2 | classification of cell line as Low(1), Medium(2) or High(3) sensitivity to compound ([1]; CNS U251(I) CL12009): 2 | classification of cell line as Low(1), Medium(2) or High(3) sensitivity to compound ([1]; Colon COLO-250 CL4010): 1 | classification of cell line as Low(1), Medium(2) or High(3) sensitivity to compound ([1]; Colon HCC-2998 (CL4002)): 2 | classification of cell line as Low(1), Medium(2) or High(3) sensitivity to compound ([1]; Colon HCT-15 CL4015): 2 | classification of cell line as Low(1), Medium(2) or High(3) sensitivity to compound ([1]; Colon HCT-116 (CL4003)): 2 | classification of cell line as Low(1), Medium(2) or High(3) sensitivity to compound ([1]; Colon HT29(I) CL4001): 1 | classification of cell line as Low(1), Medium(2) or High(3) sensitivity to compound ([1]; Colon KM12 (CL4017)): 2 | classification of cell line as Low(1), Medium(2) or High(3) sensitivity to compound ([1]; Colon SW-620 (CL4009)): 2 | classification of cell line as Low(1), Medium(2) or High(3) sensitivity to compound ([1]; Leukemia CCRF-CEM(I) (CL7003)): 2 | classification of cell line as Low(1), Medium(2) or High(3) sensitivity to compound ([1]; Leukemia HL-60(I) (CL7008)): 2 | classification of cell line as Low(1), Medium(2) or High(3) sensitivity to compound ([1]; Leukemia K562(I) CL7005): 2 | classification of cell line as Low(1), Medium(2) or High(3) sensitivity to compound ([1]; Leukemia MOLT-4 (CL7006)): 3 | classification of cell line as Low(1), Medium(2) or High(3) sensitivity to compound ([1]; Leukemia RPMI-8226(I) (CL7010)): 2 | classification of cell line as Low(1), Medium(2) or High(3) sensitivity to compound ([1]; Leukemia SR CL7019): 3 | classification of cell line as Low(1), Medium(2) or High(3) sensitivity to compound ([1]; Melanoma LOX IMVI CL10001): 2 | classification of cell line as Low(1), Medium(2) or High(3) sensitivity to compound ([1]; Melanoma M14 (CL10014)): 3 | classification of cell line as Low(1), Medium(2) or High(3) sensitivity to compound ([1]; Melanoma MALME-3M CL10002): 2 | sensitivity class NSCLC NCI-H23(I) CL1001 ([1]; cell line NSCLC NCI-H23(I), CL1001): 2 | sensitivity class NSCLC NCI-H332M CL1017 ([1]; cell line NSCLC NCI-H332M, CL1017): 1 | sensitivity class NSCLC NCI-H460 CL1021 ([1]; cell line NSCLC NCI-H460, CL1021): 3 | sensitivity class NSCLC NCI-H522 CL1003 ([1]; cell line NSCLC NCI-H522, CL1003): 2 | sensitivity class Ovarian IGROV1 CL6010 ([1]; cell line Ovarian IGROV1, CL6010): 1 | sensitivity class Ovarian OVCAR-3 CL6001 ([1]; cell line Ovarian OVCAR-3, CL6001): 1 | sensitivity class Ovarian OVCAR-4 CL6002 ([1]; cell line Ovarian OVCAR-4, CL6002): 1 | sensitivity class Ovarian OVCAR-5 CL6003 ([1]; cell line Ovarian OVCAR-5, CL6003): 1 | sensitivity class Ovarian OVCAR-8 CL6005 ([1]; cell line Ovarian OVCAR-8, CL6005): 2 | sensitivity class Ovarian SK-OV-3 CL6011 ([1]; cell line Ovarian SK-OV-3, CL6011): 2 | sensitivity class Prostate DU-145 CL11003 ([1]; cell line Prostate DU-145, CL11003): 3 | sensitivity class Prostate PC-3(I) CL11001 ([1]; cell line Prostate PC-3(I), CL11001): 3 | sensitivity class Renal 786-O CL9018 ([1]; cell line Renal 786-O, CL9018): 2 | sensitivity class Renal A498 CL9013 ([1]; cell line Renal A498, CL9013): 2 | sensitivity class Renal ACHN CL9023 ([1]; cell line Renal ACHN, CL9023): 3 | sensitivity class Renal CAKI-1 CL9015 ([1]; cell line Renal CAKI-1, CL9015): 2 | sensitivity class Renal RXF-393 CL9016 ([1]; cell line Renal RXF-393, CL9016): 2 | sensitivity class Renal SN12C CL9008 ([1]; cell line Renal SN12C, CL9008): 2 | sensitivity class Renal TK10 CL9024 ([1]; cell line Renal TK10, CL9024): 2 | sensitivity class Renal UO-31 CL9004 ([1]; cell line Renal UO-31, CL9004): 1 | -Log (GI50) ([2]; Breast BT-549 (CL5013)): 5.6 | -Log (GI50) ([2]; Breast HS-578T CL5006): 6.1 | -Log (GI50) ([2]; Breast MCF7(I) (CL5001)): 5.4 | -Log (GI50) ([2]; Breast MCF7/ADRr (CL5002)): 3.9 | -Log (GI50) ([2]; Breast MDA-MB-231 CL5005): 5.8 | -Log (GI50) ([2]; Breast MDA-MB-435 (CL5011)): 4.5 | -Log (GI50) ([2]; Breast MDA-N CL5012): 6.0 | -Log (GI50) ([2]; Breast T-47D (CL5014)): 6.0 | -Log (GI50) ([2]; CNS SF-268 CL12014): 4.8 | -Log (GI50) ([2]; CNS SF-295 CL12015): 5.0 | -Log (GI50) ([2]; CNS SF-539 CL12016): 5.2 | -Log (GI50) ([2]; CNS SNB-19 (CL12002)): 4.8 | -Log (GI50) ([2]; CNS SNB-75(I) CL12005): 4.8 | -Log (GI50) ([2]; CNS U251(I) CL12009): 5.2 | -Log (GI50) ([2]; Colon COLO-250 CL4010): 4.2 | -Log (GI50) ([2]; Colon HCC-2998 (CL4002)): 4.7 | -Log (GI50) ([2]; Colon HCT-15 CL4015): 4.5 | -Log (GI50) ([2]; Colon HCT-116 (CL4003)): 4.6 | -Log (GI50) ([2]; Colon HT29(I) CL4001): 4.2 | -Log (GI50) ([2]; Colon KM12 (CL4017)): 4.5 | -Log (GI50) ([2]; Colon SW-620 (CL4009)): 4.9 | -Log (GI50) ([2]; Leukemia CCRF-CEM(I) (CL7003)): 5.6 | -Log (GI50) ([2]; Leukemia HL-60(I) (CL7008)): 5.7 | -Log (GI50) ([2]; Leukemia K562(I) CL7005): 4.6 | -Log (GI50) ([2]; Leukemia MOLT-4 (CL7006)): 6.0 | -Log (GI50) ([2]; Leukemia RPMI-8226(I) (CL7010)): 5.4 | -Log (GI50) ([2]; Leukemia SR CL7019): 6.7 | -Log (GI50) ([2]; Melanoma LOX IMVI CL10001): 5.3 | -Log (GI50) ([2]; Melanoma M14 (CL10014)): 6.1 | -Log (GI50) ([2]; Melanoma MALME-3M CL10002): 4.7 | -Log (GI50) ([2]; NCSLC NCI-H522 CL1003): 5.1 | -Log (GI50) ([2]; NSCLC NCI-H23(I) CL1001): 5.1 | -Log (GI50) ([2]; NSCLC NCI-H332M CL1017): 3.8 | -Log (GI50) ([2]; NSCLC NCI-H460 CL1021): 6.0 | -Log (GI50) ([2]; Ovarian IGROV1 CL6010): 4.2 | -Log (GI50) ([2]; Ovarian OVCAR-3 CL6001): 4.2 | -Log (GI50) ([2]; Ovarian OVCAR-4 CL6002): 3.8 | -Log (GI50) ([2]; Ovarian OVCAR-5 CL6003): 4.3 | -Log (GI50) ([2]; Ovarian OVCAR-8 CL6005): 4.8 | -Log (GI50) ([2]; Ovarian SK-OV-3 CL6011): 4.5 | -Log (GI50) ([2]; Prostate DU-145 CL11003): 6.1 | -Log (GI50) ([2]; Prostate PC-3(I) CL11001): 6.2 | -Log (GI50) ([2]; Renal 786-O CL9018): 5.9 | -Log (GI50) ([2]; Renal A498 CL9013): 4.7 | -Log (GI50) ([2]; Renal ACHN CL9023): 6.1 | -Log (GI50) ([2]; Renal CAKI-1 CL9015): 5.2 | -Log (GI50) ([2]; Renal RXF-393 CL9016): 4.8 | -Log (GI50) ([2]; Renal SN12C CL9008): 5.0 | -Log (GI50) ([2]; Renal TK10 CL9024): 5.3 | -Log (GI50) ([2]; Renal UO-31 CL9004): 4.1
